Test results from ChEMBL document CHEMBL1122421 (J Med Chem, 1983).

Molecular target: Opioid receptor (Rattus norvegicus, UniProt P33533+P34975+P33535)
Experiment: Binding affinity against opiate receptor from rat neural membranes, using [3H]dihydromorphine as radioligand

| Structure (SMILES) | IC50 |
| --- | --- |
| CN1CCC23c4c5ccc(O)c4O[C@H]2C(=O)C=C[C@@]3(NC(=O)CBr)C1C5 (some centres not stated) | 10 nM |
| CN1CCC23c4c5ccc(O)c4O[C@H]2C(O)C=C[C@@]3(NC(=O)CBr)C1C5 (some centres not stated) | 15 nM |
